Each structure is given as a SMILES string.

The test deals with human BACE1 (Homo sapiens, UniProt P56817). As to the kind of experiment: Fluorescent kinetic assay: Evaluation of BACE-1 Binding Affinity of Test Compounds. Format: biochemical. To be noted: 10 nM enzyme, 25 μM substrate WABC-6, 50 mM Na-Acetate pH 4.5, room temperature. The protocol: Evaluation of BACE-1 Binding Affinity of Test Compounds
Fluorescent Kinetic Assays
Final Assay Conditions: 10 nM human BACE1 (or 10 nM Murine BACE1, 1.5 nM human BACE2), 25 μM substrate (WABC-6, MW 1549.6, from AnaSpec), Buffer: 50 mM Na-Acetate, pH 4.5, 0.05% CHAPS, 25% PBS, room temperature. Na-Acetate was from Aldrich, Cat.# 24, 124-5, CHAPS was from Research Organics, Cat. # 1304C 1×, PBS was from Mediatech (Cellgro), Cat# 21-031-CV, peptide substrate Abz[…]pa was from AnaSpec, Peptide Name: WABC-6 Determination of stock substrate (Abz[…]pa) concentration: ˜25 mM stock solution is made in DMSO using the peptide weight and MW, and diluted to ˜25 μM (1:1000) in 1×PBS. Concentration is determined by absorbance at 354 nm using an extinction coefficient ε of 18172 M^−1 cm^−1, the concentration of stock substrate is corrected, and the substrate stock stored in small aliquots in −80° C. [Substrate Stock]=ABS^354 nm*10^6/18172 (in […]) The extinction coefficient ε^354 nm was adapted from TACE peptide substrate, which had the same quencher-fluorophore pair.
Determination of Stock Enzyme Concentration: the stock concentration of each enzyme is determined by absorbance at 280 nm using an ε of 64150 M^−1 cm^−1 for hBACE1 and MuBACE1, 62870 M^−1 cm^−1 for hBACE2 in 6 M Guanidinium Hydrochloride (from Research Organics, Cat. # 5134G-2), pH ˜6. The extinction coefficient ε^280 nm for each enzyme was calculated based on known amino acid composition and published extinction coefficients for Trp ([…]) and Tyr ([…]) residues (Anal. Biochem. 182, 319-326).
Dilution and mixing steps: total reaction volume: 100 μL
2× inhibitor dilutions in buffer A(66.7 mM Na-Acetate, pH 4.5, 0.0667% CHAPS) were prepared,
4× enzyme dilution in buffer A(66.7 mM Na-Acetate, pH 4.5, 0.0667% CHAPS) were prepared,
100 μM substrate dilution in 1×PBS was prepared, and
50 μL 2× Inhibitor, 25 μL 100 μM substrate are added to each well of 96-well plate (from DYNEX Technologies, VWR #: 11311-046), immediately followed by 25 μL 4× enzyme (added to the inhibitor and substrate mix), and the fluorescence readings are initiated.
Fluorescence Readings: Readings at λex 320 nm and λem 420 nm are taken every 40 sec for 30 min at room temperature and the linear slope for substrate cleavage rate (vi) determined.
Testing at least 10 different inhibitor concentrations is preferred.

Chain of human BACE1 (P56817 46-501): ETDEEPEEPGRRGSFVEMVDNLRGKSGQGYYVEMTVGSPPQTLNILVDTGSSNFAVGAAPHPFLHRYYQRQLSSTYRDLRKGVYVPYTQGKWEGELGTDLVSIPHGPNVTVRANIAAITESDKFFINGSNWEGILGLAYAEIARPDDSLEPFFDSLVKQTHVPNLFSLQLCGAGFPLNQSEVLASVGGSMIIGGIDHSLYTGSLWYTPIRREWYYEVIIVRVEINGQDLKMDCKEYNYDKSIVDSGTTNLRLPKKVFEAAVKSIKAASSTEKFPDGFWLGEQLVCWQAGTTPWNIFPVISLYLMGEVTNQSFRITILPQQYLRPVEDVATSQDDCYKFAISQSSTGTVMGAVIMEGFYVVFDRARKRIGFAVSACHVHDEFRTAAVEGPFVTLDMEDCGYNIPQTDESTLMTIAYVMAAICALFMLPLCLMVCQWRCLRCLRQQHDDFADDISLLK

As usually defined, the IC50 is the concentration that inhibits the measured activity by half. In the case of `CCn1cc([C@@]2(c3cccc(-c4cccnc4F)c3)N=C(N)N(C)C2=O)cc1C(=O)C1CC1` [243 B], the IC50 is over 1000 nM.

`CCC(=O)c1cc([C@]2(c3cccc(-c4cccnc4F)c3)N=C(N)N(C)C2=O)cn1CCCC(F)(F)F` [252 A] returned an IC50 of 10 to 100 nM. With `CC(C)n1cc(C#Cc2ccc(F)c(Br)c2)cn1` [Example 94, 4-(3-bromo-4-fluorophenylethynyl)-1-isopropyl-1H-pyrazole] the figure was 10 to 100 nM. The result for `CCC(=O)c1cc([C@]2(c3cccc(-c4cc(F)cnc4F)c3)N=C(N)N(C)C2=O)cn1CCF` [242 A] reads 10 to 100 nM; that for `CCC(=O)c1cc([C@@]2(c3cccc(-c4cccnc4F)c3)N=C(N)N(C)C2=O)cn1CC1CC1` [251 B], over 1000 nM; that for `CCC(=O)c1cc([C@]2(c3cccc(-c4cccnc4F)c3)N=C(N)N(C)C2=O)cn1CC(F)(F)F` [Example 224A, (5S)-2-amino-5-[3-(2-fluoropyridin-3-yl)phenyl]-3-methyl-5-[5-propionyl-1-(2,2,2-trifluoroethyl)-1H-pyrrol-3-yl]-3,5-dihydro-4H-imidazol-4-one], 10 to 100 nM.

Compound `CCC(=O)c1cc([C@@]2(c3cccc(-c4cccnc4F)c3)N=C(N)N(C)C2=O)cs1` [244 B] came in with an IC50 of 110 to 1000 nM. With `CN1C(=O)C(c2cccc(-c3cncnc3)c2)(c2cnn(C)c2)N=C1N` (stereo not drawn) [Example 1, 2-Amino-3-methyl-5-(1-methyl-1H-pyrazol-4-yl)-5-(3-pyrimidin-5-ylphenyl)-3,5-dihydro-4-imidazol-4-one] the figure was 110 to 1000 nM; with `CC(=O)c1cc([C@@]2(c3ccccc3)N=C(N)N(C)C2=O)cn1C` [249 B], over 1000 nM; with `CC(=O)Cc1cc([C@]2(c3cccc(-c4cccnc4F)c3)N=C(N)N(C)C2=O)cn1CCCF` [Example 248, (5S)-2-Amino-5-[1-(3-fluoropropyl)-5-(2-oxopropyl)-1H-pyrrol-3-yl]-5-[3-(2-fluoropyridin-3-yl)phenyl]-3-methyl-3,5-dihydro-4H-imidazol-4-one], 10 to 100 nM. The result for `COC(=O)c1cc([C@@]2(c3cccc(-c4cccnc4F)c3)N=C(N)N(C)C2=O)cn1CCF` [257 B] reads 110 to 1000 nM.

`COC(=O)c1cc([C@@]2(c3ccc(F)c(-c4cccnc4F)c3)N=C(N)N(C)C2=O)cn1CCF` [Example 184B, Methyl 4-{(4R)-2-amino-4-[4-fluoro-3-(2-fluoropyridin-3-yl)phenyl]-1-methyl-5-oxo-4,5-dihydro-1H-imidazol-4-yl}-1-(2-fluoroethyl)-1H-pyrrole-2-carboxylate] registered an IC50 of 110 to 1000 nM. The result for `CCn1cc([C@]2(c3cccc(-c4cccnc4F)c3)N=C(N)N(C)C2=O)cn1` [Example 44B, (5S)-2-Amino-5-(1-ethyl-1H-pyrazol-4-yl)-5-[3-(2-fluoropyridin-3-yl)phenyl]-3-methyl-3,5-dihydro-4H-imidazol-4-one] reads 10 to 100 nM; that for `CCC(=O)c1cc([C@]2(c3cccc(-c4cccnc4F)c3)N=C(N)N(C)C2=O)cn1CCCF` [255 A], 10 to 100 nM; that for `CCC(=O)c1cc([C@@]2(c3cccc(-c4cccnc4F)c3)N=C(N)N(C)C2=O)cn1CCCF` [255 B], over 1000 nM. The result for `CN1C(=O)C(c2ccsc2)(c2ccc(F)c(-c3cccnc3F)c2)N=C1N` (stereo not drawn) [Example 39] reads 10 to 100 nM; that for `CCC(=O)c1cc([C@@]2(c3cccc(-c4cccnc4F)c3)N=C(N)N(C)C2=O)cn1CC(F)(F)F` [Example 224B, (5R)-2-amino-5-[3-(2-fluoropyridin-3-yl)phenyl]-3-methyl-5-[5-propionyl-1-(2,2,2-trifluoroethyl)-1H-pyrrol-3-yl]-3,5-dihydro-4H-imidazol-4-one], over 1000 nM; that for `CCC(=O)c1cc([C@@]2(c3cccc(-c4cc(F)cnc4F)c3)N=C(N)N(C)C2=O)cn1CCF` [242 B], over 1000 nM. Consider `CCCCc1ccc(C2(c3ccccc3)N=C(N)N(C)C2=O)s1` (stereo not drawn) [Example 109, 2-Amino-5-(5-butylthien-2-yl)-3-methyl-5-phenyl-3,5-dihydro-4H-imidazol-4-one], for which the IC50 was over 1000 nM. For the compound `CCn1cc(C2(c3cccc(-c4cncc(F)c4)c3)N=C(N)N(C)C2=O)cn1` (stereo not drawn) [Example 45, 2-Amino-5-(1-ethyl-1H-pyrazol-4-yl)-5-[3-(5-fluoro-pyridin-3-yl)-phenyl]-3-methyl-3,5-dihydro-imidazol-4-one], the IC50 lay within 10 to 100 nM. `CCC(=O)c1cc(C2(c3cccc(-c4cccnc4F)c3)N=C(N)N(C)C2=O)c[nH]1` (stereo not drawn) [Example 154] had a 50% inhibitory concentration (IC50) of 10 to 100 nM. With `CCC(=O)c1cc([C@]2(c3cccc(-c4cccnc4F)c3)N=C(N)N(C)C2=O)cs1` [244 A], the IC50 was in the range of 10 to 100 nM.

As for `CCC(=O)c1cc(C2(c3cccc(Br)c3)N=C(N)N(C)C2=O)cn1CCF` (stereo not drawn) [Example 150, 2-Amino-5-[3-bromophenyl]-5-[1-(2-fluoroethyl)-5-propionyl-1H-pyrrol-3-yl)-3-methyl-3,5-dihydro-4H-imidazol-4-one], the IC50 is 110 to 1000 nM. With `CCC(=O)c1cc([C@]2(c3cccc(-c4cccnc4F)c3)N=C(N)N(C)C2=O)cn1CCF` [256 A] the figure was 10 to 100 nM; with `CCn1cc(C2(c3cccc(-c4cncc(Cl)c4)c3)N=C(N)N(C)C2=O)cn1` (stereo not drawn) [Example 46, 2-Amino-5-[3-(5-chloropyridin-3-yl)phenyl]-5-(1-ethyl-1H-pyrazol-4-yl)-3-methyl-3,5-dihydro-imidazol-4-one], 10 to 100 nM. The result for `CCn1cc([C@]2(c3cccc(-c4cccnc4F)c3)N=C(N)N(C)C2=O)cc1C=O` [Example 247, 4-{(4S)-2-Amino-4-[3-(2-fluoropyridin-3-yl)phenyl]-1-methyl-5-oxo-4,5-dihydro-1H-imidazol-4-yl}-1-ethyl-1H-pyrrole-2-carbaldehyde] reads 10 to 100 nM.

`CCn1cc(C2(c3cccc(-c4cccnc4F)c3)N=C(N)N(C)C2=O)cn1` (stereo not drawn) [Example 43, 2-Amino-5-(1-ethyl-1H-pyrazol-4-yl)-5-[3-(2-fluoro-pyridin-3-yl)-phenyl]-3-methyl-3,5-dihydro-imidazol-4-one] registered an IC50 of 10 to 100 nM. `CC(=O)c1cc([C@]2(c3ccccc3)N=C(N)N(C)C2=O)cn1C` [249 A] registered an IC50 of over 1000 nM. The result for `CCC(=O)c1cc([C@@]2(c3ccc(F)c(-c4cccnc4F)c3)N=C(N)N(C)C2=O)cn1CC` [Example 183B, (5R)-2-Amino-5-(1-ethyl-5-propionyl-1H-pyrrol-3-yl)-5-[4-fluoro-3-(2-fluoropyridin-3-yl)phenyl]-3-methyl-3,5-dihydro-4H-imidazol-4-one] reads over 1000 nM; that for `COC(=O)c1cc([C@]2(c3ccc(F)c(-c4cncnc4)c3)N=C(N)N(C)C2=O)cn1CC(F)(F)F` [258 A], 10 to 100 nM; that for `COc1ncccc1-c1cc(C2(c3ccsc3)N=C(N)N(C)C2=O)ccc1F` (stereo not drawn) [Example 38], 110 to 1000 nM. Compound `CCC(=O)c1cc([C@]2(c3cccc(-c4cccnc4F)c3)N=C(N)N(C)C2=O)cn1CC(F)F` [253 A] gave an IC50 of 10 to 100 nM.

In turn, `CCn1cc([C@@]2(c3cccc(-c4cccnc4F)c3)N=C(N)N(C)C2=O)cn1` [Example 44A, (5R)-2-Amino-5-(1-ethyl-1H-pyrazol-4-yl)-5-[3-(2-fluoropyridin-3-yl)phenyl]-3-methyl-3,5-dihydro-4H-imidazol-4-one] gave an IC50 of over 1000 nM.
